What follows are molecules tested against T1, mutant G12C K-RAS (Homo sapiens, UniProt P01116, G12C) (assay: covalent adduct formation (CAF) with mutant G12C K-RAS). Conditions: Table 2, Pyrimidone Core-Morpholine Substituted; after 60 minutes at 10 micromolar.
T1 construct: made in house; host or cells: E. coli BL21
Assay type: binding
Parameters: CAF: unit not given here
Experimental: Embodiments disclosed herein are further illustrated by the following examples in Tables 1-4 and the Examples hereinbelow. The Tables indicate the compound number, structure, the observed mass spectral molecular weight peak, and covalent adduct formation (CAF) with a mutant G12C K-RAS after 60 minutes at a concentration of 10 micromolar.

SMILES	% CAF (60 min) [%]
C=CC(=O)N1CCN(c2nc(=O)n3c4c(c(-c5c(O)cccc5F)c(Cl)cc24)OC[C@@H]3CO)CC1 [Example 21, (3S)-7-(4-acryloylpiperazin-1-yl)-9-chloro-10-(2-fluoro-6-hydroxyphenyl)-3-(hydroxymethyl)-2H-[1,4]oxazino[2,3,4-ij]quinazolin-5(3H)-one]	72.8

Same assay, conditions: Table 3, Pyridone Core-Morpholine Unsubstituted; after 60 minutes at 10 micromolar

SMILES	CAF
C=CC(=O)N1CCN(c2c(C#N)c(=O)n3c4c(c(-c5c(O)cccc5F)c(Cl)cc24)OCC3)[C@@H](C)C1 [Example 38, 7-((S)-4-acryloyl-2-methylpiperazin-1-yl)-9-chloro-10-(2-fluoro-6-hydroxyphenyl)-5-oxo-3,5-dihydro-2H-[1,4]oxazino[2,3,4-ij]quinoline-6-carbonitrile]	49.1

Same assay, conditions: Table 6; 10 μM, 1 h

SMILES	% CAF @ 10 μM,1 h [%]
C=CC(=O)N1C[C@H](C)N(c2nc(=O)n3c4c(c(-c5ccc(F)cc5F)c(Cl)cc24)OC[C@@H]3CCCN2CCN(C)CC2)C[C@H]1C [Example 259, (3S)-7-((2S,5R)-4-acryloyl-2,5-dimethylpiperazin-1-yl)-9-chloro-10-(2,4-difluorophenyl)-3-(3-(4-methylpiperazin-1-yl)propyl)-2,3-dihydro-5H-[1,4]oxazino[2,3,4-ij]quinazolin-5-one]	90.2
C=CC(=O)N1C[C@H](C)N(c2nc(=O)n3c4c(c(-c5ccc(F)cc5F)c(Cl)cc24)OC[C@@H]3CN2CCN(C)CC2)C[C@H]1C [Example 257, (3S)-7-((2S,5R)-4-acryloyl-2,5-dimethylpiperazin-1-yl)-9-chloro-10-(2,4-difluorophenyl)-3-((4-methylpiperazin-1-yl)methyl)-2H-[1,4]oxazino[2,3,4-ij]quinazolin-5(3H)-one]	94.8
C=CC(=O)N1C[C@H](C)N(c2nc(=O)n3c4c(c(-c5cc(Cl)ccc5F)c(Cl)cc24)OC[C@@H]3CN2CCOCC2)C[C@H]1C [Example 211, (3S)-7-((2S,5R)-4-acryloyl-2,5-dimethylpiperazin-1-yl)-9-chloro-10-(5-chloro-2-fluorophenyl)-3-(morpholinomethyl)-2,3-dihydro-5H-[1,4]oxazino[2,3,4-ij]quinazolin-5-one]	77.4
C=CC(=O)N1C[C@H](C)N(c2nc(=O)n3c4c(c(-c5ccc(F)cc5F)c(Cl)cc24)OC[C@H]3CN2C[C@H]3CC[C@@H](C2)N3C2COC2)C[C@H]1C [Example 291, (3R)-7-((2S,5R)-4-acryloyl-2,5-dimethylpiperazin-1-yl)-9-chloro-10-(2,4-difluorophenyl)-3-(((1R,5S)-8-(oxetan-3-yl)-3,8-diazabicyclo[3.2.1]octan-3-yl)methyl)-2H-[1,4]oxazino[2,3,4-ij]quinazolin-5(3H)-one]	88.8
C=CC(=O)N1C[C@H](C)N(c2nc(=O)n3c4c(c(-c5ccc(F)cc5F)c(Cl)cc24)O[C@@H](CCCN2CCN(C)CC2)C3)C[C@H]1C [Example 263, (2S)-7-((2S,5R)-4-acryloyl-2,5-dimethylpiperazin-1-yl)-9-chloro-10-(2,4-difluorophenyl)-2-(3-(4-methylpiperazin-1-yl)propyl)-2,3-dihydro-5H-[1,4]oxazino[2,3,4-ij]quinazolin-5-one]	41.6
C=CC(=O)N1C[C@H](C)N(c2nc(=O)n3c4c(c(-c5c(C)ccc6[nH]ncc56)c(Cl)cc24)OC[C@H]3Cn2cccn2)C[C@H]1C (atropisomer, axis not shown) [Example 319, (3R,10S)-3-((1H-pyrazol-1-yl)methyl)-7-((2S,5R)-4-acryloyl-2,5-dimethylpiperazin-1-yl)-9-chloro-10-(5-methyl-1H-indazol-4-yl)-2,3-dihydro-5H-[1,4]oxazino[2,3,4-ij]quinazolin-5-one]	0
C=CC(=O)N1C[C@H](C)N(c2nc(=O)n3c4c(c(-c5ccc(F)cc5F)c(Cl)cc24)OC[C@H]3CN(C)CC(F)(F)F)C[C@H]1C [Example 235, (3R)-7-((2S,5R)-4-acryloyl-2,5-dimethylpiperazin-1-yl)-9-chloro-10-(2,4-difluorophenyl)-3-((methyl(2,2,2-trifluoroethyl)amino)methyl)-2H-[1,4]oxazino[2,3,4-ij]quinazolin-5(3H)-one]	44.5
C=CC(=O)N1C[C@H](C)N(c2nc(=O)n3c4c(c(-c5ccc(F)cc5F)c(Cl)cc24)OC[C@@H]3CCCN2C[C@@H]3C[C@H]2CO3)C[C@H]1C [Example 266, (3S)-3-(3-((1S,4S)-2-oxa-5-azabicyclo[2.2.1]heptan-5-yl)propyl)-7-((2S,5R)-4-acryloyl-2,5-dimethylpiperazin-1-yl)-9-chloro-10-(2,4-difluorophenyl)-2,3-dihydro-5H-[1,4]oxazino[2,3,4-ij]quinazolin-5-one]	59.2
C=CC(=O)N1C[C@H](C)N(c2nc(=O)n3c4c(c(-c5cccc6ccccc56)c(Cl)cc24)OC[C@H]3CCCN2C[C@@H]3C[C@H]2CO3)C[C@H]1C (atropisomer, axis not shown) [Example 322, (3R,10S)-3-(3-((1S,4S)-2-oxa-5-azabicyclo[2.2.1]heptan-5-yl)propyl)-7-((2S,5R)-4-acryloyl-2,5-dimethylpiperazin-1-yl)-9-chloro-10-(naphthalen-1-yl)-2,3-dihydro-5H-[1,4]oxazino[2,3,4-ij]quinazolin-5-one]	78.5
C=CC(=O)N1C[C@H](C)N(c2nc(=O)n3c4c(c(-c5c(O)cccc5F)c(Cl)cc24)OC[C@@H]3Cn2cccn2)C[C@H]1C (atropisomer, axis not shown) [Example 244, (3S,10R)-3-((1H-pyrazol-1-yl)methyl)-7-((2S,5R)-4-acryloyl-2,5-dimethylpiperazin-1-yl)-9-chloro-10-(2-fluoro-6-hydroxyphenyl)-2H-[1,4]oxazino[2,3,4-ij]quinazolin-5(3H)-one]	4.4
C=CC(=O)N1C[C@H](C)N(c2nc(=O)n3c4c(c(-c5ccc(F)cc5F)c(Cl)cc24)OC[C@H]3CO[C@@H]2CCN(C)C2)C[C@H]1C [Example 302, (3R)-7-((2S,5R)-4-acryloyl-2,5-dimethylpiperazin-1-yl)-9-chloro-10-(2,4-difluorophenyl)-3-((((R)-1-methylpyrrolidin-3-yl)oxy)methyl)-2,3-dihydro-5H-[1,4]oxazino[2,3,4-ij]quinazolin-5-one]	45.8
C=CC(=O)N1CCN(c2nc(=O)n3c4c(c(-c5c(O)cccc5F)c(Cl)cc24)OC[C@@H]3CN2CCOCC2)[C@@H](C)C1 [Example 195, (3S,10R)-7-((S)-4-acryloyl-2-methylpiperazin-1-yl)-9-chloro-10-(2-fluoro-6-hydroxyphenyl)-3-(morpholinomethyl)-2,3-dihydro-5H-[1,4]oxazino[2,3,4-ij]quinazolin-5-one]	0
C=CC(=O)N1C[C@H](C)N(c2nc(=O)n3c4c(c(-c5ccc(F)cc5F)c(Cl)cc24)OC[C@H]3CC2CCN(CC)CC2)C[C@H]1C [Example 333, (3R)-7-((2S,5R)-4-acryloyl-2,5-dimethylpiperazin-1-yl)-9-chloro-10-(2,4-difluorophenyl)-3-((1-ethylpiperidin-4-yl)methyl)-2H-[1,4]oxazino[2,3,4-ij]quinazolin-5(3H)-one]	83.9
C=CC(=O)N1C[C@H](C)N(c2nc(=O)n3c4c(c(-c5ccc(F)cc5F)c(Cl)cc24)OC[C@@H]3CN2CCC2)C[C@H]1C [Example 232, (3S)-7-((2S,5R)-4-acryloyl-2,5-dimethylpiperazin-1-yl)-3-(azetidin-1-ylmethyl)-9-chloro-10-(2,4-difluorophenyl)-2H-[1,4]oxazino[2,3,4-ij]quinazolin-5(3H)-one]	82.4

From patent publication US12162893B2 (Erasca, Inc., priority 2020, dated 2024)
